According to ChEMBL document CHEMBL5390296, “N-Biphenyl Pyrrolinones and Dibenzofurans as RNA-Binding Protein LIN28 Inhibitors Disrupting the LIN28-Let-7 Interaction” (ACS Med Chem Lett, 2023):
Calls of active or inactive are those of the source. No cut-off for these calls is given here.

Tests used:
[1] = Inhibition of LIN28A (16 to 187 residues) (unknown origin) expressed in Escherichia coli BL21(DE3)/mouse let-7 interaction incubated for 15 mins in presence of Cy-3-fluorophore labeled RNA by electrophoretic mobility shift assay
[2] = Inhibition of LIN28A (16 to 187 residues) (unknown origin) expressed in Escherichia coli BL21(DE3)/mouse let-7 interaction at 75 uM incubated for 15 mins in presence of Cy-3-fluorophore labeled RNA by electrophoretic mobility shift assay relative to control
JAR = test: Inhibition of let-7d miRNA biogenesis in human JAR cells incubated for 24 hrs by qPCR analysis; assay type: functional, cell-based; details: dose 5-20 µM
let-7i miRNA [3] = test: Inhibition of let-7i miRNA biogenesis in human JAR cells incubated for 24 hrs by qPCR analysis; assay type: functional, cell-based; details: dose 5-20 µM
[4] = biological target: T1, Protein lin-28 homolog A (Homo sapiens) (UniProt Q9H9Z2); test: Binding affinity to recombinant LIN28A CSD (16 to 126 residues) (unknown origin) by biolayer interferometry analysis; details: dose 1.56-100 µM
T1 sequence (whole entry): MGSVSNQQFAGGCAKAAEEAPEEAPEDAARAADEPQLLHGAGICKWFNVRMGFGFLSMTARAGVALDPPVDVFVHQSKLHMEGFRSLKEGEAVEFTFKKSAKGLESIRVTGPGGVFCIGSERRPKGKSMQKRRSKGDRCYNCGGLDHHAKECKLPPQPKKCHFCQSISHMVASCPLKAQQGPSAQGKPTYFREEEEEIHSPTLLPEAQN

[5] = Inhibition of let-7d miRNA biogenesis in human JAR cells assessed as fold increase in mature […] at 5 to 20 uM incubated for 24 hrs by qPCR analysis; assay type: functional; details: dose 5-20 µM
let-7i miRNA [6] = test: Inhibition of let-7i miRNA biogenesis in human JAR cells assessed as fold increase in mature […] at 5 to 20 uM incubated for 24 hrs by qPCR analysis; assay type: functional, cell-based; details: dose 5-20 µM
Homo sapiens = organism: Homo sapiens; test: Inhibition of LIN28B (24 to 111 residues) (unknown origin) expressed in Escherichia coli BL21(DE3)/mouse let-7 interaction incubated for 15 mins in presence of Cy-3-fluorophore labeled RNA by electrophoretic mobility shift assay; details: dose 2.3-150 µM
[7] = biological target: T1, Protein lin-28 homolog A (Homo sapiens); test: Inhibition of recombinant LIN28A CSD (16 to 126 residues) (unknown origin) assessed as increase in thermal stability at 75 uM incubated for 45 mins by nano differential scanning fluorimetry analysis

For `O=C(C1=C(O)C(=O)N(CCCc2ccccc2)C1c1ccc([N+](=O)[O-])cc1)c1ccccc1` (centres undefined), the IC50 [1] was 5 µM.
In the case of `O=C(C1=C(O)C(=O)N(c2cccc(-c3ccccc3)c2)C1c1ccc([N+](=O)[O-])cc1)c1ccccc1` (racemic), the inhibition [2] is reported as 84%, the Activity (JAR) is reported as “Dose-Dependent Effect” and the Activity (let-7i miRNA [3]) is reported as “Dose-Dependent Effect”. For the same compound, the Activity [4] was “Dose-Dependent Effect”, the “fold change (FC)” value [5] was 2 and the fold change (FC) (let-7i miRNA [6]) was 2. The inhibition (Homo sapiens) was “Dose-Dependent Effect”.
With `N=C1CC=CC=C1C1=C(N)C(=O)N(c2ccc(O)c(C(=O)O)c2)[C@@H]1c1ccc([N+](=O)[O-])cc1` the inhibition [2] was “inactive”.
For `O=C1C(=O)C2(CCCC2=O)C(c2ccc([N+](=O)[O-])cc2)N1c1cccc(-c2ccccc2)c1` (centres undefined), the inhibition [2] was “inactive”.
With `O=C(O)c1cc(N2C(=O)c3nn(Cc4ccccc4)c(-c4ccccc4)c3C2c2ccc([N+](=O)[O-])cc2)ccc1O` (centres undefined) the inhibition [2] was “inactive”.
For `O=C(C1=C(O)C(=O)N(c2cccc(-c3ccccc3)c2)C1c1ccc([N+](=O)[O-])cc1)c1ccc(F)cc1O` (centres undefined), the inhibition [2] was “inactive”.
In the case of `O=C(C1=C(O)C(=O)N(c2ccc(O)c(C(=O)O)c2)[C@H]1c1ccc([N+](=O)[O-])cc1)c1ccc(Cl)cc1`, the inhibition [2] is reported as “inactive”.
In the case of `O=C(O)c1cc(N2C(=O)C(O)=C(c3nccs3)C2c2ccc([N+](=O)[O-])cc2)ccc1O` (centres undefined), the inhibition [2] is reported as 64.8%.
`Cn1nnc2cc(C3C(C(=O)c4ccccc4)=C(O)C(=O)N3c3ccc(O)c(C(=O)O)c3)ccc21` (centres undefined) showed a ΔTm [7] of under 0.5 °C.
In the case of `O=C1C(=O)C2(CCCC2=O)C(c2ccc([N+](=O)[O-])cc2)N1c1ccc2oc3ccccc3c2c1` (centres undefined), the inhibition [2] is reported as “inactive”.
In the case of `O=C(O)c1cc(N2C(=O)c3c(c(-c4ccccc4)nn3Cc3ccccc3)C2c2ccc([N+](=O)[O-])cc2)ccc1O` (centres undefined), the inhibition [2] is reported as “inactive”.
With `O=C(C1=C(O)C(=O)N(c2cccc(-c3ccccc3)c2)C1c1ccc([N+](=O)[O-])cc1)C1CC1` (centres undefined) the inhibition [2] was “inactive”.
For `O=C(C1=C(O)C(=O)N(c2cccc(-c3ccccc3)c2)[C@@H]1c1ccc([N+](=O)[O-])cc1)c1ccccc1`, the IC50 [1] was 37 µM.
For `O=C1C(=O)C2(CCCC2=O)C(c2ccccc2)N1c1ccccc1` (centres undefined), the inhibition [2] was “inactive”.
For `O=C1C(=O)C2(CCCCC2=O)C(c2ccccc2)N1c1ccccc1` (centres undefined), the inhibition [2] was “inactive”.
For `O=C(C1=C(O)C(=O)N(c2ccc(O)c(C(=O)O)c2)[C@@H]1c1ccc([N+](=O)[O-])cc1)c1ccc(Cl)cc1`, the inhibition [2] was “inactive”.
With `O=C1C(=O)C2(CCCCC2=O)C(c2ccc([N+](=O)[O-])cc2)N1c1cccc(-c2ccccc2)c1` (centres undefined) the inhibition [2] was “inactive”.
In the case of `COc1ccc(C(=O)C2=C(O)C(=O)N(c3cccc(-c4ccccc4)c3)C2c2ccc([N+](=O)[O-])cc2)cc1OC` (centres undefined), the inhibition [2] is reported as “inactive”.
For `O=C(C1=C(O)C(=O)N(c2cccc([N+](=O)[O-])c2)[C@H]1c1ccc([N+](=O)[O-])cc1)c1ccccc1`, the inhibition [2] was “inactive”.
With `O=C1C(=O)C2(CCCC2=O)C(c2ccc([N+](=O)[O-])cc2)N1c1ccc2c(c1)oc1ccccc12` (centres undefined) the inhibition [2] was “inactive”.
`O=C(C1=C(O)C(=O)N(c2ccc(O)c(C(=O)O)c2)C1c1ccc([N+](=O)[O-])cc1)c1ccccn1` (centres undefined) gave an inhibition [2] of 106%.
With `NC1=C(C(=O)c2ccccc2)[C@@H](c2ccc([N+](=O)[O-])cc2)N(c2ccc(O)c(C(=O)O)c2)C1=O` the inhibition [2] was “inactive”.
For `O=C(O)c1cc(N2C(=O)C(O)=C(Cc3ccccc3)[C@H]2c2ccc([N+](=O)[O-])cc2)ccc1O`, the inhibition [2] was “inactive”.
With `Cc1ccc(C(=O)C2=C(O)C(=O)N(c3ccc(O)c(C(=O)O)c3)C2c2ccc([N+](=O)[O-])cc2)cc1` (centres undefined) the inhibition [2] was 65.6%.
`Nc1ccc(C2C(C(=O)c3ccccc3)=C(O)C(=O)N2c2ccc(O)c(C(=O)O)c2)cc1` (centres undefined) showed an IC50 [1] of 5 µM.
In the case of `O=C(C1=C(O)C(=O)N(c2cccc([N+](=O)[O-])c2)[C@@H]1c1ccc([N+](=O)[O-])cc1)c1ccccc1`, the inhibition [2] is reported as “inactive”.
With `O=C(O)c1cc(N2C(=O)C(O)=C(Cc3ccccc3)[C@@H]2c2ccc([N+](=O)[O-])cc2)ccc1O` the inhibition [2] was “inactive”.
In the case of `CS(=O)(=O)c1ccc(C(=O)C2=C(O)C(=O)N(c3cccc(-c4ccccc4)c3)C2c2ccc([N+](=O)[O-])cc2)cc1` (centres undefined), the inhibition [2] is reported as “inactive”.
